IC50 data for 15 compounds are collected here from US10538555B2, “Macrocyclic inhibitors of the PD-1/PD-L1 and CD80(B7-1)/PD-L1 protein/protein interactions” (BRISTOL-MYERS SQUIBB COMPANY, priority 2014, dated 2020).

*1 amine or outer side, *2 acyl side, *3 side chain or, on linkers, in order; H or OH if unused. Where a SMILES comes first, the peptide text is derived from it. Bridges are numbered along the chain shown (N, C = ends). [ ]: non-standard residue; d: D form. ξ: configuration not given here. Trp(1-CH2COOH) = N[C@@H](Cc1cn(CC(=O)O)c2ccccc12)C(=O)O; Phe(3,4,5-F3) = N[C@@H](Cc1cc(F)c(F)c(F)c1)C(=O)O; NMePhe(4-F) = CN[C@@H](Cc1ccc(F)cc1)C(=O)O; Phe(4-F) = N[C@@H](Cc1ccc(F)cc1)C(=O)O; X4 = CC1(C)CC[C@H](C(=O)[*:2])N1[*:1]; d(cisHyp) = O=C(O)[C@H]1C[C@@H](O)CN1; Bta = N[C@@H](Cc1csc2ccccc12)C(=O)O; Hyp = O=C(O)[C@@H]1C[C@@H](O)CN1; NMeF = CN[C@@H](Cc1ccccc1)C(=O)O; dPip(4-aza) = O=C(O)[C@H]1CNCCN1; dHyp = O=C(O)[C@H]1C[C@H](O)CN1; NMeNle = CCCC[C@H](NC)C(=O)O; Pip = O=C(O)[C@@H]1CCCCN1; dPip = O=C(O)[C@H]1CCCCN1; NMeA = CN[C@@H](C)C(=O)O; Orn = NCCC[C@H](N)C(=O)O; Dab = NCC[C@H](N)C(=O)O; Dap = NC[C@H](N)C(=O)O; ξC = NC(CS)C(=O)O; Sar = CNCC(=O)O

The target in the first assay is T1, Human PD-L1/PD-1 (Homo sapiens, UniProt Q9NZQ7).
T1 construct: TVMV protease cleavage site (C); made in house; host or cells: HEK293T cells
T1 sequence (Q9NZQ7 with tags, fused parts or gaps): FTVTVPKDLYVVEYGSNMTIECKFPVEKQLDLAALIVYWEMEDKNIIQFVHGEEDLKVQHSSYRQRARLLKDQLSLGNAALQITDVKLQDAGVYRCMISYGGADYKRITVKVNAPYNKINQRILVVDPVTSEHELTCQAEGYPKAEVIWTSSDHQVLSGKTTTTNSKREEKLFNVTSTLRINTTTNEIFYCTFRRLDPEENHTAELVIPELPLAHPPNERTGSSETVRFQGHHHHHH
Nature of the assay: HTRF Human PD-L1/PD-1 binding assay (PD-1-Ig/PD-L1-His). The following applies: PD-L1-His 10 nM, PD-1-Ig 20 nM; class symbol; read-out: HTRF Human PD-L1/PD-1 Binding Assay IC50 Range. In outline: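 Inhibitors were preincubated 15 min with human PD-L1(18-239)-His (10 nM final), then PD-1(25-167)-Ig (20 nM final) was added for 15 min in dPBS/0.1% BSA/0.05% Tween-20. Eu-cryptate anti-Ig (1 nM) and APC anti-His (20 nM) were added; 665/620 nm ratio read after 30 min.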
Regarding `CCCC[C@H]1C(=O)N(C)[C@@H](CCCC)C(=O)N[C@@H](CCC(=O)O)C(=O)N[C@H](C(=O)NCC(N)=O)CSCC(=O)N[C@@H](Cc2ccc(O)cc2)C(=O)N(C)[C@@H](C)C(=O)N[C@@H](CC(=O)O)C(=O)N2CCC[C@H]2C(=O)N[C@@H](CO)C(=O)N[C@@H](CC(C)C)C(=O)N2C[C@H](O)C[C@H]2C(=O)N[C@@H](Cc2c[nH]c3ccccc23)C(=O)N[C@@H](CCC(=O)O)C(=O)N[C@@H](Cc2c[nH]c3ccccc23)C(=O)N1C` [Example 5254] ({CH2CO}-Y[NMeA]DPSL[Hyp]WEW[NMeNle][NMeNle]ECG-NH2; thioether N-14), the IC50 lay within 10 to 99.9 nM.

Take `CCCC[C@H]1C(=O)N(C)[C@@H](C)C(=O)N[C@@H](CCCNC(=N)N)C(=O)NC(C(=O)N[C@@H](CO)C(N)=O)CSCC(=O)N[C@@H](Cc2ccc(O)cc2)C(=O)N(C)[C@@H](C)C(=O)N[C@@H](CC(N)=O)C(=O)N2CCC[C@H]2C(=O)N[C@@H](CO)C(=O)N[C@H](CC(C)C)C(=O)N2CCC[C@H]2C(=O)N[C@@H](Cc2c[nH]c3ccccc23)C(=O)N[C@@H](CO)C(=O)N[C@@H](Cc2csc3ccccc23)C(=O)N1C` (stereo partly drawn) [Example 9122] ({CH2CO}-Y[NMeA]NPS[dL]PWS[Bta][NMeNle][NMeA]R[ξC]S-NH2; thioether N-14): the IC50 is 10 to 99.9 nM.

`CCCC[C@H]1C(=O)N2CCC[C@@H]2C(=O)N[C@@H](CO)C(=O)N[C@@H](C(C)C)C(=O)N(C)[C@@H](Cc2ccccc2)C(=O)N[C@@H](Cc2ccc(O)cc2)C(=O)N2CCCC[C@@H]2C(=O)N[C@@H](Cc2c[nH]c3ccccc23)C(=O)N[C@@H](Cc2ccc(O)cc2)C(=O)N[C@@H](CC(C)C)C(=O)N[C@H](C(=O)NCC(N)=O)CSCC(=O)N[C@@H](Cc2ccccc2)C(=O)N(C)[C@@H](Cc2ccccc2)C(=O)N1C` [Example 10064] ({CH2CO}-F[NMeF][NMeNle][dP]SV[NMeF]Y[dPip]WYLCG-NH2; thioether N-13): the IC50 fell in the range of 10 to 99.9 nM.

`CCCC[C@H]1C(=O)N2C[C@H](O)C[C@@H]2C(=O)N[C@@H](CC(=O)O)C(=O)N[C@@H](C(C)C)C(=O)N(C)[C@@H](Cc2ccccc2)C(=O)N[C@@H](CCC(=O)O)C(=O)N2CCNC[C@@H]2C(=O)N[C@@H](Cc2c[nH]c3ccccc23)C(=O)N[C@@H](Cc2ccc(O)cc2)C(=O)N[C@@H](CCCN)C(=O)N[C@H](C(=O)NCC(N)=O)CSCC(=O)N[C@@H](Cc2ccc(F)cc2)C(=O)N(C)[C@@H](Cc2ccccc2)C(=O)N1C` [Example 3648] ({CH2CO}-[Phe(4-F)][NMeF][NMeNle][d(cisHyp)]DV[NMeF]E[dPip(4-aza)]WY[Orn]CG-NH2; thioether N-13): the IC50 was 10 to 99.9 nM.

On to `CCCC[C@H]1C(=O)N(C)[C@@H](CCCC)C(=O)N[C@@H](CCC(=O)O)C(=O)NC(C(=O)NCC(N)=O)CSCC(=O)N[C@@H](Cc2ccc(O)cc2)C(=O)N(C)[C@@H](C)C(=O)N[C@@H](CC(N)=O)C(=O)N2CCC[C@H]2C(=O)N[C@@H](CC(N)=O)C(=O)N[C@@H](CC(C)C)C(=O)N2C[C@H](O)C[C@H]2C(=O)N[C@@H](Cc2c[nH]c3ccccc23)C(=O)N[C@@H](CO)C(=O)N[C@@H](Cc2c[nH]c3ccccc23)C(=O)N1C` (stereo partly drawn) [Example 9169] ({CH2CO}-Y[NMeA]NPNL[Hyp]WSW[NMeNle][NMeNle]E[ξC]G-NH2; thioether N-14), for which the IC50 fell in the range of 1 to 9.9 nM.

Consider `CCCC[C@H]1C(=O)N(C)[C@@H](CCCC)C(=O)N[C@@H](C)C(=O)N[C@H](C(=O)NCC(N)=O)CSCC(=O)N[C@@H](Cc2ccc(O)cc2)C(=O)N(C)[C@@H](C)C(=O)N[C@@H](CC(N)=O)C(=O)N2CCC[C@H]2C(=O)N[C@@H](Cc2cnc[nH]2)C(=O)N[C@@H](CCC(N)=O)C(=O)N2C[C@H](O)C[C@H]2C(=O)N[C@@H](Cc2c[nH]c3ccccc23)C(=O)N[C@@H](CO)C(=O)N[C@@H](Cc2csc3ccccc23)C(=O)N1C` [Example 1542] ({CH2CO}-Y[NMeA]NPHQ[Hyp]WS[Bta][NMeNle][NMeNle]ACG-NH2; thioether N-14), for which the IC50 was in the range of 10 to 99.9 nM.

Turning to `CCCC[C@H]1C(=O)N(C)[C@@H](CCCC)C(=O)N[C@@H](CCCN)C(=O)NC(C(=O)NCC(N)=O)CSCC(=O)N[C@@H](Cc2ccc(O)cc2)C(=O)N(C)[C@@H](C)C(=O)N[C@@H](CC(N)=O)C(=O)N2CCC[C@H]2C(=O)N[C@@H](CC(N)=O)C(=O)N[C@@H](CC(C)C)C(=O)N2CCC[C@H]2C(=O)N[C@@H](Cc2c[nH]c3ccccc23)C(=O)N[C@@H](CO)C(=O)N[C@@H](Cc2csc3ccccc23)C(=O)N1C` (stereo partly drawn) [Example 9156] ({CH2CO}-Y[NMeA]NPNLPWS[Bta][NMeNle][NMeNle][Orn][ξC]G-NH2; thioether N-14), the IC50 lay within 1 to 9.9 nM.

On to `CCCC[C@H]1C(=O)N2C[C@@H](O)C[C@@H]2C(=O)N[C@@H](CC(=O)O)C(=O)N[C@@H](C(C)C)C(=O)N(C)[C@@H](Cc2ccccc2)C(=O)N[C@@H](CCC(=O)O)C(=O)N2CCCC[C@@H]2C(=O)N[C@@H](Cc2c[nH]c3ccccc23)C(=O)N[C@@H](Cc2ccc(O)cc2)C(=O)N[C@@H](CC(C)C)C(=O)N[C@H](C(=O)NCC(N)=O)CSCC(=O)N[C@@H](Cc2cc(F)c(F)c(F)c2)C(=O)N(C)[C@@H](Cc2ccc(F)cc2)C(=O)N1C` [Example 10556] ({CH2CO}-[Phe(3,4,5-F3)][NMePhe(4-F)][NMeNle][dHyp]DV[NMeF]E[dPip]WYLCG-NH2; thioether N-13), for which the IC50 lay in the range of 1 to 9.9 nM.

For the compound `CCCC[C@H]1C(=O)N2CCC[C@@H]2C(=O)N[C@@H](CC(=O)O)C(=O)N[C@@H](C(C)C)C(=O)N(C)[C@@H](Cc2ccccc2)C(=O)N[C@@H](CCC(=O)O)C(=O)N2CCCC[C@@H]2C(=O)N[C@@H](Cc2c[nH]c3ccccc23)C(=O)N[C@@H](Cc2ccc(O)cc2)C(=O)N[C@@H](CCC(N)=O)C(=O)N[C@H](C(=O)NCC(N)=O)CSCC(=O)N[C@@H](Cc2cc(F)c(F)c(F)c2)C(=O)N(C)[C@@H](Cc2ccc(F)cc2)C(=O)N1C` [Example 10563] ({CH2CO}-[Phe(3,4,5-F3)][NMePhe(4-F)][NMeNle][dP]DV[NMeF]E[dPip]WYQCG-NH2; thioether N-13), the IC50 is 1 to 9.9 nM.

As to `CCCC[C@H]1C(=O)N(C)[C@@H](CCCC)C(=O)N[C@@H](CCC(=O)O)C(=O)N[C@H](C(=O)NCC(N)=O)CSCC(=O)N[C@@H](Cc2ccc(O)cc2)C(=O)N2CCCC[C@H]2C(=O)N[C@@H](CC(N)=O)C(=O)N2CCC[C@H]2C(=O)N[C@@H](Cc2cnc[nH]2)C(=O)N[C@@H](CCCCN)C(=O)N2C[C@H](O)C[C@H]2C(=O)N[C@@H](Cc2c[nH]c3ccccc23)C(=O)N[C@@H](CCCCN)C(=O)N[C@@H](Cc2cn(CC(=O)O)c3ccccc23)C(=O)N1C` [Example 1303] ({CH2CO}-Y[Pip]NPHK[Hyp]WK[Trp(1-CH2COOH)][NMeNle][NMeNle]ECG-NH2; thioether N-14), the IC50 lay in the range of 10 to 99.9 nM.

For `CCCC[C@H]1C(=O)N(C)[C@@H](CCCC)C(=O)N[C@@H](CCCN)C(=O)N[C@H](C(=O)NCC(N)=O)CSCC(=O)N[C@@H](Cc2ccc(OC)cc2)C(=O)N(C)[C@@H](C)C(=O)N[C@@H](CC(=O)O)C(=O)N2CCC[C@H]2C(=O)N[C@@H](CN)C(=O)N[C@@H](CCCCN)C(=O)N2C[C@H](O)C[C@H]2C(=O)N[C@@H](Cc2c[nH]c3ccccc23)C(=O)N[C@@H](CCN)C(=O)N[C@@H](Cc2c[nH]c3ccccc23)C(=O)N1C` [Example 7089] ({CH2CO}-Y(Me)[NMeA]DP[Dap]K[Hyp]W[Dab]W[NMeNle][NMeNle][Orn]CG-NH2; thioether N-14), the IC50 fell in the range of 1 to 9.9 nM.

Take `CCCC[C@H]1C(=O)N(C)[C@@H](C)C(=O)N[C@@H](CCCNC(=N)N)C(=O)NC(C(=O)NCC(N)=O)CSCC(=O)N[C@@H](Cc2ccc(O)cc2)C(=O)N(C)[C@@H](C)C(=O)N[C@@H](CC(N)=O)C(=O)N2CCC[C@H]2C(=O)N[C@@H](CO)C(=O)N[C@H](CC(C)C)C(=O)N2C[C@H](O)C[C@H]2C(=O)N[C@@H](Cc2c[nH]c3ccccc23)C(=O)N[C@@H](CO)C(=O)N[C@@H](Cc2c[nH]c3ccccc23)C(=O)N1C` (stereo partly drawn) [Example 9115] ({CH2CO}-Y[NMeA]NPS[dL][Hyp]WSW[NMeNle][NMeA]R[ξC]G-NH2; thioether N-14): the IC50 was in the range of 10 to 99.9 nM.

As for `CCCC[C@H]1C(=O)N2C[C@H](O)C[C@@H]2C(=O)N[C@@H](CC(=O)O)C(=O)N[C@@H](C(C)C)C(=O)N(C)[C@@H](Cc2ccccc2)C(=O)N[C@@H](CCC(=O)O)C(=O)N2C[C@H](O)C[C@@H]2C(=O)N[C@@H](Cc2c[nH]c3ccccc23)C(=O)N[C@@H](Cc2ccc(O)cc2)C(=O)N[C@@H](CCCCN)C(=O)N[C@H](C(=O)NCC(N)=O)CSCC(=O)N[C@@H](Cc2cc(F)c(F)c(F)c2)C(=O)N(C)[C@@H](Cc2ccccc2)C(=O)N1C` [Example 9331] ({CH2CO}-[Phe(3,4,5-F3)][NMeF][NMeNle][d(cisHyp)]DV[NMeF]E[d(cisHyp)]WYKCG-NH2; thioether N-13), the IC50 fell in the range of 1 to 9.9 nM.

Still in this assay, the particulars now being: PD-L1-His 10 nM, PD-1-Ig 20 nM; read-out: HTRF Human PD-L1/PD-1 Binding Assay IC50.
As to `CCCC[C@H]1C(=O)N(C)CC(=O)N[C@@H](CC(=O)O)C(=O)N[C@@H](C)C(=O)N(C)[C@@H](Cc2ccccc2)C(=O)N[C@@H](Cc2ccc(O)cc2)C(=O)N2C[C@@H](O)C[C@@H]2C(=O)N[C@@H](Cc2c[nH]c3ccccc23)C(=O)N[C@@H](Cc2ccc(O)cc2)C(=O)N[C@@H](CC(C)C)C(=O)N[C@H](C(=O)NCC(N)=O)CSCC(=O)N[C@@H](Cc2ccccc2)C(=O)N(C)[C@@H](Cc2ccccc2)C(=O)N1C` [Example 10083] ({CH2CO}-F[NMeF][NMeNle][Sar]DA[NMeF]Y[dHyp]WYLCG-NH2; thioether N-13), the IC50 turned out to be 158 nM.

On to `CCCC[C@H]1C(=O)N(C)CC(=O)N[C@@H](CC(=O)O)C(=O)N[C@@H](C(C)C)C(=O)N(C)[C@@H](Cc2ccccc2)C(=O)N[C@@H](Cc2ccc(O)cc2)C(=O)N2[C@H](CCC2(C)C)C(=O)N[C@@H](Cc2c[nH]c3ccccc23)C(=O)N[C@@H](Cc2ccc(O)cc2)C(=O)N[C@@H](CC(C)C)C(=O)N[C@H](C(=O)NCC(N)=O)CSCC(=O)N[C@@H](Cc2ccccc2)C(=O)N(C)[C@@H](Cc2ccccc2)C(=O)N1C` [Example 3210] ({CH2CO}-F[NMeF][NMeNle][Sar]DV[NMeF]Y[X4]WYLCG-NH2; thioether N-13), for which the IC50 turned out to be 1000 nM.
